Test results reported in patent US20260242768A1, “ACETYL-COENZYME A CARBOXYLASE MUTANTS” (CIBUS US LLC, priority 2023, published 2026).

How the values were obtained:
[1] = test system: rice Oryza sativa; assay: Regenerated edited rice shoots established in soil, greenhouse: plant growth, herbicide tolerance, fertility (Example 9); format: in vivo
Excerpt: The D2078G mutation was introduced into a native rice Oryza sativa ACCase gene utilizing PEG delivery of CRISPR-Cas and GRONs into protoplasts. Examples of target spacer sequences for sgRNA targeting the rice ACCase gene are shown, but not limited to, those listed in the below Table 9. Sequence information for exemplary GRONs is shown, but not limited to those listed in the below Table 10. Rice protoplasts were isolated from cell suspension cultures initiated from Cypress mature seed-derived embryogenic calli. A non-coding D2078G GRON with RNP (CRISPR-Cas9 protein plus gRNA complex) was introduced into rice protoplasts using PEG-mediated delivery method. Following PEG treatment, protoplasts were cultured in liquid medium and kept stationary in the dark at 26±2° C. for 2 weeks. After 2 weeks, culture plates were gently scraped to release the divided protoplasts from the bottom of the plates and added equal volume of fresh liquid medium. These cultures were transferred on a rotatory shaker and incubated in the dark at 26±2° C. […]
The results of herbicide rate tolerance field trials of the D2078G/P2083T line can be seen below in Table 11. The edited plants were sprayed with clethodim, and plant injury was visually scored at (7) seven, (14) fourteen, and (28) days after application of the herbicide (“DAA”) on a 0-100% percentage scale for chlorosis of newest leaf-tips and growing points.

[2] = test system: O. sativa ACCase; assay: Growth of Saccharomyces cerevisiae pseudodiploid acc1Δ strains carrying wild-type or mutant OsACCase plasmids, streaked onto plates with increasing concentrations of clethodim (Examples 5, 7, 10; Tables 8, 12); format: cell-based, Oryza sativa; parameters: key to growth, 0 mM clethodim / growth, 0.025 mM clethodim / growth, 0.1 mM clethodim / growth, 0.25 mM clethodim / growth, 0.5 mM clethodim / growth, 1 mM clethodim: ++ = Strong growth; + = Poor growth; − = No growth; key to relative growth phenotype, 0.5 mM clethodim / relative growth phenotype, 1 mM clethodim / relative growth phenotype, 2 mM clethodim / relative growth phenotype, highGal / relative growth phenotype, lowGal / relative growth phenotype, 0.05 mM clethodim / relative growth phenotype, 0.1 mM clethodim / relative growth phenotype, 0.25 mM clethodim: +++ high growth; ++ moderate growth; + low to negligible growth; (−) some cell debris, no growth; − no growth or cell debris; conditions: for clethodim tolerance compared to the wild-type (wt) control strain: Example 5; for growth, 0 mM clethodim / growth, 0.025 mM clethodim / growth, 0.1 mM clethodim / growth, 0.25 mM clethodim / growth, 0.5 mM clethodim / growth, 1 mM clethodim: Table 12; for growth, 0 mM clethodim: plate with 0 mM clethodim; for growth, 0 mM clethodim / growth, 0.025 mM clethodim / growth, 0.1 mM clethodim / growth, 0.25 mM clethodim / growth, 0.5 mM clethodim / growth, 1 mM clethodim / relative growth phenotype, 0.05 mM clethodim / relative growth phenotype, 0.1 mM clethodim / relative growth phenotype, 0.25 mM clethodim / relative growth phenotype, 0.5 mM clethodim / relative growth phenotype, 1 mM clethodim / relative growth phenotype, 2 mM clethodim: galactose 0.01%; for growth, 0.025 mM clethodim: plate with 0.025 mM clethodim; for growth, 0.1 mM clethodim / relative growth phenotype, 0.1 mM clethodim: plate with 0.1 mM clethodim; for growth, 0.25 mM clethodim / relative growth phenotype, 0.25 mM clethodim: plate with 0.25 mM clethodim; for growth, 0.5 mM clethodim / relative growth phenotype, 0.5 mM clethodim: plate with 0.5 mM clethodim; for growth, 1 mM clethodim / relative growth phenotype, 1 mM clethodim: plate with 1 mM clethodim; for relative growth phenotype, 0.05 mM clethodim: plate with 0.05 mM clethodim; for relative growth phenotype, 2 mM clethodim: plate with 2 mM clethodim; for relative growth phenotype, highGal / relative growth phenotype, lowGal: yeast acc1Δ strain with OsACCase plasmid, no clethodim; for relative growth phenotype, highGal: high galactose plate; for relative growth phenotype, lowGal: low galactose plate
Excerpt: Mutations at position N2097S and V2098A were combined to determine if point mutations at both positions gave increased resistance compared to either single point mutation. Each of these respective mutations (N2097S, V2098A and N2097S/V2098A) were generated by standard methods and introduced into a Saccharomyces cerevisiae pseudodiploid acc1Δ strain with a plasmid containing wild-type O. sativa ACCase gene. Once each of these mutations were introduced by recombination mediated mutagenesis, the OsACCase wild-type plasmid was removed, and mutation strains were confirmed by sequencing. The three strains, along with a series of controls including a WT strain (negative control), an I1781L mutant strain, and a D2078G mutant strain (positive control), were streaked onto plates with increasing concentrations of clethodim. […] These observations argue that N2097S is an enhancer of V2098A tolerance.
Edits at position S1784N and A1785G were combined to determine if point mutations at both of these two positions gave increased resistance compared to either single point mutation. Each of these respective mutations (S1784N, A1785G and S1784N/A1785G) were generated by standard methods and introduced into a Saccharomyces cerevisiae pseudodiploid acc1Δ strain with a plasmid containing wild-type O. sativa ACCase gene. Once each of these mutations were introduced by recombination mediated mutagenesis, the OsACCase wild-type plasmid was removed, and mutation strains were confirmed by sequencing. The three strains, along with a series of controls including a WT strain (negative control), an I1781L mutant strain, a D2078G mutant strain (positive control), and a V2075L mutant strain were streaked onto plates with increasing concentrations of clethodim.
Each of these respective mutations (D2078G, P2083T, D2078G/P2083T) were generated by standard methods and introduced into a Saccharomyces cerevisiae pseudodiploid acc14 strain with a plasmid containing the wild-type O. sativa ACCase gene. Once plasmids bearing each of these mutations, introduced using recombination-mediated mutagenesis, the OsACCase wild-type plasmid was removed, and strains bearing each mutant plasmid were confirmed by sequencing. The three strains, along with a series of controls including a wild-type strain (negative control), an I1781L mutant strain (medium control), and a pre-existing D2078G mutant strain (positive control) were streaked onto plates with increasing concentrations of clethodim.

[3] = test system: rice (Oryza sativa) plastidal ACCase; assay: Clethodim tolerance of rice ACCase mutations, yeast complementation assay (Examples 1-3); format: cell-based; conditions: for clethodim tolerance: ACCase mutation tested with the herbicide clethodim
Excerpt: Joachimiak M. et al Proc Natl Acad Sci U.S.A. 1997 Sep. 2; 94 (18): 9990-5 and WO/2013/074524 and WO/2013/074524 each describe methods to complement a yeast (Saccharomyces cerevisiae) strain lacking the native acc1 gene with either a wt or mutated form of a chimeric plastidal ACCase gene from a plant such as rice (Oryza sativa). Methods to introduce one or more mutations listed herein into the chimeric ACCase gene and subsequently complement the acc1 lacking yeast strain are well known by an individual skilled in the art. In the art assays are known for measuring tolerance of a mutated plant ACCase gene versus a herbicide that is a member of the aryloxyphenoxypropanoate, cyclohexanedione, and/or phenylpyrazoline families of herbicides such as clethodim, sethoxydim, fluazifop, haloxyfop, quizalofop, and pinoxaden (Joachimiak M. et al Proc Natl Acad Sci U.S.A. 1997 Sep. 2; 94 (18): 9990-5 and WO/2013/074524).
A library of random mutations in the rice (Oryza sativa) plastidal ACCase gene was generated and screened for clethodim tolerant clones using a yeast complementation assay.

[4] = plates with increasing clethodim, 0.01% galactose
[5] = Example 10, highest concentration tested 1 mM, 0.01% galactose

Substance | clethodim tolerance compared to the wild-type (wt) control strain [2, 4] | growth, 0 mM clethodim [2] | growth, 0.025 mM clethodim [2] | growth, 0.1 mM clethodim [2] | growth, 0.25 mM clethodim [2] | growth, 0.5 mM clethodim [2] | growth, 1 mM clethodim [2] | relative growth phenotype, 0.05 mM clethodim [2] | relative growth phenotype, 0.1 mM clethodim [2] | relative growth phenotype, 0.25 mM clethodim [2] | relative growth phenotype, 0.5 mM clethodim [2] | relative growth phenotype, 1 mM clethodim [2] | relative growth phenotype, 2 mM clethodim [2] | relative growth phenotype, highGal [2] | relative growth phenotype, lowGal [2] | clethodim tolerance [3] | growth on clethodim plates (in words) [2, 4] | other results
D2078G: mutated ACCase, numbering per SEQ ID NO: 2; positive control strain; also edited rice shoots | did produce tolerance | ++ | ++ | ++ | ++ | ++ | + | +++ | +++ | +++ | +++ | + | (−) | +++ | +++ | measurable clethodim tolerance |  | herbicide tolerance [1]: strong herbicide tolerance; clethodim concentrations on which the strain grew ([2]; Example 7, plates with increasing clethodim, 0.01% galactose): up to 1.0 mM
I1781L: mutated ACCase, numbering per SEQ ID NO: 2; moderate-resistance control | did produce tolerance | ++ | ++ | ++ | + | − | − | +++ | +++ | ++ | (−) | (−) | (−) | +++ | +++ | produces tolerance | consistent with moderate resistance | clethodim concentrations on which the strain grew poorly [2, 5]: up to 0.25 mM; clethodim concentrations on which the strain grew well [2, 5]: up to 0.1 mM
N2097S: mutated ACCase, numbering per SEQ ID NO: 2 | does not produce detectable clethodim tolerance |  |  |  |  |  |  |  |  |  |  |  |  |  |  | neither the N2097S nor the N2097D single mutations provide detectable clethodim tolerance |  | effect on clethodim tolerance when combined with D2078G, V2075L or V2098A ([3]; combined with either D2078G, V2075L or V2098A): further increases clethodim tolerance
S1784N: mutated ACCase, numbering per SEQ ID NO: 2 |  |  |  |  |  |  |  | +++ | +++ | + | (−) | (−) | (−) | +++ | +++ | measurable clethodim tolerance |  | 
V2075L: mutated ACCase, numbering per SEQ ID NO: 2 |  |  |  |  |  |  |  | +++ | +++ | +++ | +++ | + | (−) | +++ | +++ | measurable clethodim tolerance | grew to a similar extent as the V2075L mutation | 
V2098A: mutated ACCase, numbering per SEQ ID NO: 2 | did produce tolerance |  |  |  |  |  |  |  |  |  |  |  |  |  |  | measurable clethodim tolerance |  | 
